According to ChEMBL document CHEMBL3507680, “University of Dundee, Gates Library screen for HepG2 cell viability”:

Assay: Human HepG2 cell viability assay in 384 well format
Assay type: toxicity, cell-based
Parameters: dose 125 nL, time 70.5 hour; cytotoxicity at 70.5 h: concentration not given beside the values
Settings: HepG2 cells, read-out: Inhibition

Compound	cytotoxicity at 70.5 h [%]
Cc1c[nH]c(C2CCCN(C(=O)CCc3c(C)n[nH]c3C)C2)n1 (centres undefined)	-2.32
CC(NCc1ccc(-c2ccc(Cl)cc2)o1)c1nnc2n1CCC2 (centres undefined)	-4.6
O=C(C1CN(CC2CC2)CC12CCOCC2)N1CCOCC1 (centres undefined)	-1.96
Cc1nc(Cc2ccccc2)nc2sc(C(=O)O)c(C)c12	-5.63
COc1cc(OC)cc(-c2cc(N)on2)c1	-7.45
O=C(CC1CCCC1)Nc1ccc(-n2cc(Br)cn2)nc1	-2.32
COc1ccc(CNC(=O)CCN2C[C@@H](C)[C@](O)(C3CC3)C2)cc1	-4.82
NC(=O)c1ccc(CN2CCC(N3CCCC3)CC2)cc1	-2.01
CCNc1cc2c(nn1)CCN(C(=O)c1ccoc1)C2	-11.9
O=c1cc(Cn2ccnc2)nc2n1CCCN(Cc1ccc(F)cc1)C2	-14.3
COCc1nc2cc(NCc3nc(C)cs3)ccc2o1	-2.56
Cc1nn(C(C)C)c2cn(CC(=O)NC3CCSCC3)nc12	-3.25
CCn1nc(C)c(S(=O)(=O)N(C)c2ccc(Cl)cn2)c1C	12
O=S(=O)(Cc1cccc2cccnc12)NC(CO)c1ccco1 (centres undefined)	-9.35
O=C(NC1CC1)C1CCN(c2cccc(C(F)(F)F)n2)CC1	-1.37
Cc1ccccc1N1CCN(C(=O)c2cccnc2-n2cncn2)CC1	-6.93
O=C(NCC1CCC1)c1ccc(-n2ccnc2)nn1	5.15
NC(Cc1nc(-c2ccccc2)no1)c1ccccc1 (centres undefined)	-6.63
CN(Cc1nc2ccccc2n1C)C(=O)CCc1cscn1	-1.17
Cc1cc(NCc2nnc3n2CCCCC3)n2nc(C)c(C)c2n1	-5.75
N#Cc1ccsc1N1CCC(Sc2ccncc2)C1=O (centres undefined)	-7.07
CNc1cc(-c2cc(OC)c(OC)c(OC)c2)ncn1	-6.66
CN(C)c1cc(C(=O)Nc2ccccc2C(=O)NC(C)(C)C)ccn1	-2.3

Compound	cytotoxicity at 70.5 h [%]
Cc1ccc(C(=O)N2CC(C(N)=O)O[C@H](C)C2)c(C)c1 (some centres undefined)	1.19
CCc1nc(C(=O)N2CCN(C)CC2)nn1-c1ccccc1Cl	16.1
CCCN(C(=O)c1ccc(-n2ccnn2)cc1)c1cccnc1	-3.08
O=C(Cc1ccsc1)N1C[C@@H]2OCCN(CC3CCCO3)[C@@H]2C1 (some centres undefined)	7.05
O=C(NCCC1CCN(CC(F)(F)F)CC1)C1CCOC1 (centres undefined)	3.01
CN(C)c1cccc(C(=O)N2CCn3c(nnc3C3CC3)C2)c1	19.2
Cc1csc(C2CCCCN2C(=O)CCCn2cccn2)n1 (centres undefined)	-11.4
COc1ncc(C2(O)CCN(Cc3cccc(F)c3F)CC2)c(OC)n1	-3.22
CCNC(=O)c1ccc(N2CCCC(c3nccn3C(C)C)C2)nc1 (centres undefined)	-10.3
CS(=O)(=O)NCc1ncn2c1CN(CCN1CCCC1)CCC2	-6.23
CCOC1CCN(CC(=O)Nc2oc(C)c3c(C)n[nH]c(=O)c23)CC1	-4.42
O=C(c1ccncc1F)N1CCc2ncnc(-c3ccncc3)c2CC1	6.15
Cc1ccc2cc(C(=O)N3CCCN(C)CC3)ccc2n1	-2.19
Cc1cc(C)n(CCCN(C)C(=O)[C@H]2CCCO2)n1	-14.9
COc1cccc(CC(C)NC(=O)c2ccc(CNC(C)=O)cc2)c1 (centres undefined)	-2.82
COCC1CC2(CCN(C(C)=O)CC2)CN1Cc1csc(C)n1 (centres undefined)	-4.16
O=C(NCC1CC1)c1nc(COc2ccc3c(c2)OCO3)no1	0.603
O=S(=O)(CCc1ccccc1Cl)CC(O)CO (centres undefined)	-0.491
C[C@@H](NC(=O)c1ccc(Cl)cc1)c1onc(-c2cccnc2)c1C(=O)O	-6
O=C(c1cccnc1)N1CCCC1c1nc(O)cc(-c2ccccn2)n1 (centres undefined)	-6.66
CC(=O)N1CCN(Cc2csc(-c3cnn(C)c3)n2)CC1	2.34
CC(C)CC(=O)N1CC(=O)c2sc(NC3CCCCC3)nc2C1	1.17
CC(c1ccon1)N(C)S(=O)(=O)NCc1ccccc1 (centres undefined)	-2.95

Compound	cytotoxicity at 70.5 h [%]
Cc1cc(NC2CCN(CC3CCCO3)CC2)n2nc(C)c(C)c2n1 (centres undefined)	4.66
N#Cc1cn(C2CC2)c(=O)n(Cc2cc(-c3cccs3)on2)c1=O	-6.97
CN(C)C(=O)C1CCCN1CCCNC(=O)Cc1ccccc1F (centres undefined)	-16.1
CC(C)CN1CC[C@@H]2[C@@H]1CCN2C(=O)N1CCCC1	-3.86
CC(=O)N1CCC(N[C@@H]2CO[C@H](CNC(=O)C3CCCC3)[C@H]2O)CC1	-5.38
CC(C)(C)OC(=O)N1CC(=O)N(Cc2ccco2)CC(O)C1 (centres undefined)	-7.3
O=S(=O)(c1ccc(Cl)cc1)N1CCC(OCc2ccccn2)C1 (centres undefined)	2.04
Cn1cccc1C(=O)N1CCCC1c1ccc(CN2CCOCC2)cn1 (centres undefined)	-1.35
CNC(=O)[C@@H]1[C@H]2CN(Cc3ccoc3)CCN2C[C@H]1c1ccccc1	-0.196
O=C(O)C1CN(c2cccc(F)c2)CCO1 (centres undefined)	14.9
O=C(C1CC(F)(F)C1)N1C[C@@H]2CN(CC3CCCC3)CCO[C@@H]2C1	22.1
Cc1nsc(NC(=O)NC2CCOCC2)n1	13.1
COCCNC(=O)[C@]12COC[C@H]1CN(C1CCOCC1)C2	10.6
CN(C)C(=O)c1ccc2c(c1)N(C)C(CC(=O)NCc1ncc[nH]1)CO2 (centres undefined)	-5.15
CN(C)CCN1CCC2(CCN(C(=O)c3cccnc3)CC2)C1=O	-4.08
COc1ccccc1C1(C(=O)N2CCN(CC(C)O)CC2)CC1 (centres undefined)	-0.267
CNc1nc(C)c(C(=O)N2CCCCC2CCN2CCOCC2)s1 (centres undefined)	-0.313
COC(=O)CCC(=O)NC(C)Cc1ccccc1Br (centres undefined)	-4.19
Cc1ccc(C(=O)NCC(c2cnn(C)c2)N(C)C)c(O)c1 (centres undefined)	25.6
CNc1ccccc1C(=O)N(C)CCc1ccccc1	-5.46
CN(Cc1ccsc1)C(=O)CN1CCOC(Cn2cccn2)C1 (centres undefined)	29
CCS(=O)(=O)CCNC(=O)NC(C)c1ccc(C)s1 (centres undefined)	-8.94
Cc1ccccc1C(=O)Nc1ccc(OC2CCN(C)CC2)cc1	-4.55

Compound	cytotoxicity at 70.5 h [%]
Oc1ccc(Cl)cc1CNCc1cccc(C(F)(F)F)c1	-12.9
c1cc(CN2CCC(c3ccncc3)CC2)cc(Cn2cccn2)c1	-1.99
CCOCCn1nc(C)cc1C(=O)N1CCN(C(C)C)C(CC)C1 (centres undefined)	-8.86
O=C(O)CCC(=O)Nc1nn(Cc2ccc(F)cc2)cc1Cl	27.9
CCOc1ccc(C#N)cc1NC(=O)N1CCC(N2CCCC2)C1 (centres undefined)	-9.59
CCCNC(=O)Nc1cccc2c1CCN(S(C)(=O)=O)C2	-1.5
Cc1nc(CN2CCOC(c3ccc(Cl)cc3)C2)oc1C (centres undefined)	-7.95
Fc1cccc(-c2nnn3c2COC(CNCc2nccs2)C3)c1 (centres undefined)	14.6
C[C@@H]1CN(C(=O)c2cc(COc3ccc4c(c3)OCO4)[nH]n2)C[C@H](C)O1	-3.48
CNC(=O)NC(=O)CCN1CCOC(c2ccc(Br)cc2)C1 (centres undefined)	-7.41
O=C(CN1CCCC1Cn1cncn1)NCCC1=CCCCC1 (centres undefined)	1.2
Nc1ncc(-c2ccc(Cl)cc2)c(C2CCCNC2)n1 (centres undefined)	37.3
CCN1CCCC1CNC(=O)Cc1c(C)n[nH]c1-c1ccc(OC)cc1 (centres undefined)	24.8
CCc1nccn1C1CCCN(C(=O)CCCc2ccccn2)C1 (centres undefined)	-2.48
O=S(=O)(CCSc1nccn1C1CC1)c1ccccc1	-5.9
Cc1nn(C)c(C)c1C1CCCN1CC(=O)Nc1cc(C(C)C)no1 (centres undefined)	-3.36
Cc1ccc(C(=O)Nc2c(C(=O)N(C)C)nn(C)c2C)cc1C	-4.41
COc1ccc(CNC(=O)c2nn(C)c3c2CS(=O)(=O)CC3)cc1	-7.69
CCN1CC2(CNCCN(C(=O)Nc3ccccc3)C2)CC1=O (centres undefined)	2.39
CCC1=N[C@@]2(CC[C@@H]3CN(C(=O)NCC(C)C)C[C@@H]32)C(=O)N1CC(C)C	-9.11
Cc1cccc(C(=O)N2CCC3(CCN(c4cnn(C)c4)C3=O)C2)n1 (centres undefined)	-1.73
O=C(Cn1cccnc1=O)NC(Cc1ccsc1)c1ccccn1 (centres undefined)	-11.2
CCN(CC)C(=O)Nc1cc2c(cc1SC)OCCO2	-6.83

Compound	cytotoxicity at 70.5 h [%]
CCC1CCCN(CC(=O)Nc2oc(C)c3c(C)n[nH]c(=O)c23)C1 (centres undefined)	-9.67
CCC(C)(C)NC(=O)Cn1nc(C)nc1-c1ccccc1	-0.158
CCn1nc(C)cc1C(=O)N1C[C@@H]2C[C@@H](c3nnc(C)[nH]3)O[C@@H]2C1	-12.7
COc1ccc(NC(=O)Cn2nc(C)c(C)cc2=O)c(OC)c1	-8.67
Cc1ccc(CNC(=O)C2CCNC(=O)C2)c(OCCC(C)C)c1 (centres undefined)	0.635
COc1cccc(CC(=O)NCc2cnc(C)nc2C2CCCN2C)c1 (centres undefined)	-6.33
Cc1c(C)n(Cc2ccccn2)c2nc3c(c(N)c12)CCCC3	-14.4
CN(C)CCOCC1CN(Cc2ccoc2)Cc2nnn(C)c21 (centres undefined)	-11.2
O=C(NCC1CC1)C1CN(C(=O)Cc2cccs2)CC12CCOCC2 (centres undefined)	1.89
CCc1ccc(C(=O)NCC2CCCN2CC)o1 (centres undefined)	-3.5
O=C(c1nc(=O)[nH][nH]1)N1CCCN(CC2CCCCC2)CC1	-7.64
O=c1[nH]c(-c2ccccc2F)nc2c1CCNC2	14.4
CCCc1cc(=O)[nH]c(SCc2ccccn2)n1	-2.16
Cc1cn2nc(N3CCCC3Cn3nc(C)cc3C)sc2n1 (centres undefined)	-7.66
CC(c1ccncc1)N1Cc2nc(N(C)C)ncc2C1=O (centres undefined)	-2.18
O[C@@H]1C[C@@](CNCc2ccc(F)cc2)(COc2cccnc2)C[C@@H]1O	0.0431
CCc1ncc2c(n1)CN(Cc1nnc(C(C)C)o1)CC2	-99.6
COCc1ccccc1C(=O)NCC(O)c1ccccc1F (centres undefined)	-2.57
COc1ccc(Cc2nnc3n2N=C(C(C)(C)C)CS3)cc1	8.14
COc1cc(OC)c2nc(NCCN3CCNC3=O)cc(C)c2c1	2.59
CC(CCSc1ccccc1)N1CCN(C(=O)c2ccccc2O)CC1 (centres undefined)	36.1
CC(C)[C@@H]1CN(S(=O)(=O)Cc2ccccc2)C[C@H]1C(=O)O	-3.52
